From patent US20260000656A1, “ANTIFUNGAL AGENTS WITH ENHANCED ACTIVITY IN ACIDIC PH” (Scynexis, Inc., priority 2017, published 2026)
In brackets after ≈: the same amount, converted by molar mass. Read-outs that look alike come from different tables or passages of the source.

Tests used:
[1] = tested on: C. glabrata isolates; assay: Broth microdilution susceptibility (CLSI M27-A3) at different medium pH; assay type: cell-based, Candida glabrata; settings: for MIC range: 50% inhibition; for MIC range / MIC50 / MIC90: 10 vaginal isolates; for MIC50 / MIC90 / MIC: Nakaseomyces glabratus, 24 h; for MIC50: read-out: MIC50; for MIC90: read-out: MIC90; for MIC: read-out: MIC (50% inhibition)
Experimental: (§1) Ten strains each of C. glabrata and C. albicans vaginal isolates were tested. The strains were obtained from recent clinical trial patients with vulvovaginal candidiasis (VVC) prior to treatment. Candida strains were obtained from the Mycology Reference Library (MRL) at Case Western Reserve University School of Medicine, Ohio, United States.
(§2) Susceptibility testing was performed using a broth microdilution method, according to CLSI M27-A3 guidelines (CLSI. 2008. Reference Method for Broth Dilution Antifungal Susceptibility Testing of Yeasts; Approved Standard—Third Edition. Clinical and Laboratory Standards Institute, CLSI document M27-A3). Antifungals and concentrations tested were SCY-078 and micafungin (both at concentrations within the range of 0.015 to 8 μg/ml) and fluconazole (at concentrations within the range of 0.125 to 64 μg/ml). A 0.1-ml C. albicans and C. glabrata inoculum of 0.5-2.5×10^3 blastospores/ml in RPMI 1640 medium was added to each microdilution well. ATCC strains of Candida parapsilosis and Candida krusei QC isolates were also included concurrently to ensure quality control. Antifungal susceptibility testing was carried out for each isolate in RPMI 1640 at pH 7 (to mimic RPMI medium used in testing the susceptibility of yeast by the CLSI M-27A3 document), pH 5.7, and pH 4.5 (to mimic the pH of the vaginal cavity) by adjusting the pH of the media using NaOH or HCl. […] Agents Chemother., 43: 1383-1386 (1999).
(§3) […] SCY-078 powder was manufactured by Avista, Laboratories, NC. Micafungin and fluconazole were sourced from LGM Pharma.

[2] = tested on: C. albicans isolates; assay: as above; assay type: cell-based, Candida albicans; settings: for MIC range / MIC50 / MIC90: 10 vaginal isolates; for MIC90: read-out: MIC90; for MIC: read-out: MIC (50% inhibition)
Experimental: as §1, §2, §3

[3] = pH 4.5, 50% inhibition, pH 4.5, 24 h
[4] = pH 5.72, 50% inhibition, pH 5.72, 24 h
[5] = pH 7, 50% inhibition, pH 7.0, 24 h

MIC range ([1]; pH 4.5, 24 h): 1 to 16 µg/mL
MIC range ([1]; pH 5.72, 24 h): 2 to 16 µg/mL
MIC range ([1]; pH 7.0, 24 h): 0.5 to 2 µg/mL
increase in MIC50, pH 7 compared to pH 4.5 ([1]; C. glabrata isolates): 8 fold
MIC50 [1, 3]: 8 µg/mL (≈ 26.1 µM)
MIC90 [1, 3]: 16 µg/mL (≈ 52.2 µM)
MIC ([1]; pH 4.5, C. glabrata MRL 32075, pH 4.5, 24 hours): 8 µg/mL (≈ 26.1 µM)
MIC ([1]; pH 4.5, C. glabrata MRL 32232, pH 4.5, 24 hours): 8 µg/mL (≈ 26.1 µM)
MIC ([1]; pH 4.5, C. glabrata MRL 32626, pH 4.5, 24 hours): 8 µg/mL (≈ 26.1 µM)
MIC ([1]; pH 4.5, C. glabrata MRL 32993, pH 4.5, 24 hours): 16 µg/mL (≈ 52.2 µM)
MIC ([1]; pH 4.5, C. glabrata MRL 33204, pH 4.5, 24 hours): 8 µg/mL (≈ 26.1 µM)
MIC ([1]; pH 4.5, C. glabrata MRL 33960, pH 4.5, 24 hours): 16 µg/mL (≈ 52.2 µM)
MIC ([1]; pH 4.5, C. glabrata MRL 33961, pH 4.5, 24 hours): 1 µg/mL (≈ 3.27 µM)
MIC ([1]; pH 4.5, C. glabrata MRL 34339, pH 4.5, 24 hours): 8 µg/mL (≈ 26.1 µM)
MIC ([1]; pH 4.5, C. glabrata MRL 34407, pH 4.5, 24 hours): 8 µg/mL (≈ 26.1 µM)
MIC ([1]; pH 4.5, C. glabrata MRL 34576, pH 4.5, 24 hours): 16 µg/mL (≈ 52.2 µM)
MIC50 [1, 4]: 8 µg/mL (≈ 26.1 µM)
MIC90 [1, 4]: 16 µg/mL (≈ 52.2 µM)
MIC ([1]; pH 5.72, C. glabrata MRL 32075, pH 5.72, 24 hours): 8 µg/mL (≈ 26.1 µM)
MIC ([1]; pH 5.72, C. glabrata MRL 32232, pH 5.72, 24 hours): 8 µg/mL (≈ 26.1 µM)
MIC ([1]; pH 5.72, C. glabrata MRL 32626, pH 5.72, 24 hours): 8 µg/mL (≈ 26.1 µM)
MIC ([1]; pH 5.72, C. glabrata MRL 32993, pH 5.72, 24 hours): 16 µg/mL (≈ 52.2 µM)
MIC ([1]; pH 5.72, C. glabrata MRL 33204, pH 5.72, 24 hours): 8 µg/mL (≈ 26.1 µM)
MIC ([1]; pH 5.72, C. glabrata MRL 33960, pH 5.72, 24 hours): 16 µg/mL (≈ 52.2 µM)
MIC ([1]; pH 5.72, C. glabrata MRL 33961, pH 5.72, 24 hours): 2 µg/mL (≈ 6.53 µM)
MIC ([1]; pH 5.72, C. glabrata MRL 34339, pH 5.72, 24 hours): 2 µg/mL (≈ 6.53 µM)
MIC ([1]; pH 5.72, C. glabrata MRL 34407, pH 5.72, 24 hours): 8 µg/mL (≈ 26.1 µM)
MIC ([1]; pH 5.72, C. glabrata MRL 34576, pH 5.72, 24 hours): 8 µg/mL (≈ 26.1 µM)
MIC50 [1, 5]: 1 µg/mL (≈ 3.27 µM)
MIC90 [1, 5]: 2 µg/mL (≈ 6.53 µM)
MIC ([1]; pH 7, C. glabrata MRL 32075, pH 7.0, 24 hours): 2 µg/mL (≈ 6.53 µM)
MIC ([1]; pH 7, C. glabrata MRL 32232, pH 7.0, 24 hours): 2 µg/mL (≈ 6.53 µM)
MIC ([1]; pH 7, C. glabrata MRL 32626, pH 7.0, 24 hours): 1 µg/mL (≈ 3.27 µM)
MIC ([1]; pH 7, C. glabrata MRL 32993, pH 7.0, 24 hours): 2 µg/mL (≈ 6.53 µM)
MIC ([1]; pH 7, C. glabrata MRL 33204, pH 7.0, 24 hours): 2 µg/mL (≈ 6.53 µM)
MIC ([1]; pH 7, C. glabrata MRL 33960, pH 7.0, 24 hours): 1 µg/mL (≈ 3.27 µM)
MIC ([1]; pH 7, C. glabrata MRL 33961, pH 7.0, 24 hours): 1 µg/mL (≈ 3.27 µM)
MIC ([1]; pH 7, C. glabrata MRL 34339, pH 7.0, 24 hours): 0.5 µg/mL (≈ 1.63 µM)
MIC ([1]; pH 7, C. glabrata MRL 34407, pH 7.0, 24 hours): 1 µg/mL (≈ 3.27 µM)
MIC ([1]; pH 7, C. glabrata MRL 34576, pH 7.0, 24 hours): 1 µg/mL (≈ 3.27 µM)
MIC range ([2]; 50% inhibition, pH 4.5, 24 h): 0.25 to 8 µg/mL
MIC50 ([2]; 50% inhibition, pH 5.72, 24 h): < 0.125 µg/mL
MIC range ([2]; 50% inhibition, pH 5.72, 24 h): <0.125 to 1 µg/mL
MIC range ([2]; 50% inhibition, pH 7.0, 24 h): <0.125 to 1 µg/mL
MIC50 ([2]; Candida albicans, 24 h, pH 4.5, 50% inhibition, pH 4.5, 24 h, read-out: MIC50): 0.25 µg/mL (≈ 0.816 µM)
MIC90 ([2]; Candida albicans, 24 h, pH 4.5, 50% inhibition, pH 4.5, 24 h): 1 µg/mL (≈ 3.27 µM)
MIC ([2]; Candida albicans, 24 h, pH 4.5, C. albicans MRL 34366, pH 4.5, 24 hours): 0.25 µg/mL (≈ 0.816 µM)
MIC ([2]; Candida albicans, 24 h, pH 4.5, C. albicans MRL 34367, pH 4.5, 24 hours): 1 µg/mL (≈ 3.27 µM)
MIC ([2]; Candida albicans, 24 h, pH 4.5, C. albicans MRL 34372, pH 4.5, 24 hours): 0.25 µg/mL (≈ 0.816 µM)
MIC ([2]; Candida albicans, 24 h, pH 4.5, C. albicans MRL 34373, pH 4.5, 24 hours): 0.5 µg/mL (≈ 1.63 µM)
MIC ([2]; Candida albicans, 24 h, pH 4.5, C. albicans MRL 34374, pH 4.5, 24 hours): 0.25 µg/mL (≈ 0.816 µM)
MIC ([2]; Candida albicans, 24 h, pH 4.5, C. albicans MRL 34385, pH 4.5, 24 hours): 0.25 µg/mL (≈ 0.816 µM)
MIC ([2]; Candida albicans, 24 h, pH 4.5, C. albicans MRL 34389, pH 4.5, 24 hours): 0.5 µg/mL (≈ 1.63 µM)
MIC ([2]; Candida albicans, 24 h, pH 4.5, C. albicans MRL 34399, pH 4.5, 24 hours): 8 µg/mL (≈ 26.1 µM)
MIC ([2]; Candida albicans, 24 h, pH 4.5, C. albicans MRL 34408, pH 4.5, 24 hours): 0.25 µg/mL (≈ 0.816 µM)
MIC ([2]; Candida albicans, 24 h, pH 4.5, C. albicans MRL 34449, pH 4.5, 24 hours): 0.5 µg/mL (≈ 1.63 µM)
MIC50 ([2]; Candida albicans, 24 h, pH 5.72, 50% inhibition, pH 5.72, 24 h, read-out: MIC50): < 0.125 µg/mL
MIC90 ([2]; Candida albicans, 24 h, pH 5.72, 50% inhibition, pH 5.72, 24 h): 0.25 µg/mL (≈ 0.816 µM)
MIC ([2]; Candida albicans, 24 h, pH 5.72, C. albicans MRL 34366, pH 5.72, 24 hours): < 0.125 µg/mL
MIC ([2]; Candida albicans, 24 h, pH 5.72, C. albicans MRL 34367, pH 5.72, 24 hours): 0.25 µg/mL (≈ 0.816 µM)
MIC ([2]; Candida albicans, 24 h, pH 5.72, C. albicans MRL 34372, pH 5.72, 24 hours): < 0.125 µg/mL
MIC ([2]; Candida albicans, 24 h, pH 5.72, C. albicans MRL 34373, pH 5.72, 24 hours): < 0.125 µg/mL
MIC ([2]; Candida albicans, 24 h, pH 5.72, C. albicans MRL 34374, pH 5.72, 24 hours): < 0.125 µg/mL
MIC ([2]; Candida albicans, 24 h, pH 5.72, C. albicans MRL 34385, pH 5.72, 24 hours): < 0.125 µg/mL
MIC ([2]; Candida albicans, 24 h, pH 5.72, C. albicans MRL 34389, pH 5.72, 24 hours): < 0.125 µg/mL
MIC ([2]; Candida albicans, 24 h, pH 5.72, C. albicans MRL 34399, pH 5.72, 24 hours): 1 µg/mL (≈ 3.27 µM)
MIC ([2]; Candida albicans, 24 h, pH 5.72, C. albicans MRL 34408, pH 5.72, 24 hours): 0.25 µg/mL (≈ 0.816 µM)
MIC ([2]; Candida albicans, 24 h, pH 5.72, C. albicans MRL 34449, pH 5.72, 24 hours): < 0.125 µg/mL
MIC50 ([2]; Candida albicans, 24 h, pH 7, 50% inhibition, pH 7.0, 24 h, read-out: MIC50): 0.25 µg/mL (≈ 0.816 µM)
MIC90 ([2]; Candida albicans, 24 h, pH 7, 50% inhibition, pH 7.0, 24 h): 0.25 µg/mL (≈ 0.816 µM)
MIC ([2]; Candida albicans, 24 h, pH 7, C. albicans MRL 34366, pH 7.0, 24 hours): < 0.125 µg/mL
MIC ([2]; Candida albicans, 24 h, pH 7, C. albicans MRL 34367, pH 7.0, 24 hours): 0.25 µg/mL (≈ 0.816 µM)
MIC ([2]; Candida albicans, 24 h, pH 7, C. albicans MRL 34372, pH 7.0, 24 hours): < 0.125 µg/mL
MIC ([2]; Candida albicans, 24 h, pH 7, C. albicans MRL 34373, pH 7.0, 24 hours): 0.25 µg/mL (≈ 0.816 µM)
MIC ([2]; Candida albicans, 24 h, pH 7, C. albicans MRL 34374, pH 7.0, 24 hours): 0.25 µg/mL (≈ 0.816 µM)
MIC ([2]; Candida albicans, 24 h, pH 7, C. albicans MRL 34385, pH 7.0, 24 hours): < 0.125 µg/mL
MIC ([2]; Candida albicans, 24 h, pH 7, C. albicans MRL 34389, pH 7.0, 24 hours): < 0.125 µg/mL
MIC ([2]; Candida albicans, 24 h, pH 7, C. albicans MRL 34399, pH 7.0, 24 hours): 1 µg/mL (≈ 3.27 µM)
MIC ([2]; Candida albicans, 24 h, pH 7, C. albicans MRL 34408, pH 7.0, 24 hours): 0.25 µg/mL (≈ 0.816 µM)
MIC ([2]; Candida albicans, 24 h, pH 7, C. albicans MRL 34449, pH 7.0, 24 hours): 0.25 µg/mL (≈ 0.816 µM)
SMILES: OC(Cn1cncn1)(Cn1cncn1)c1ccc(F)cc1F [Fluconazole, reference compound]
